Measurements as given in paper PMC12073402, “A Selective MAP3K1 Inhibitor Facilitates Discovery of NPM1 as a Member of the Network” (Molecules, 2025).

Columns and labels:
Experiment in all cases: KiNativ kinome profiling in PANC-1 lysate
Assay type in all cases: binding
SIK = molecular target: T1, SIK (Homo sapiens, UniProt P57059); conditions: Lys1
T1 construct: endogenous in cells; host or cells: PANC-1 cell lysate
Outline: (§1)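 PANC-1 lysates were incubated with 5 μM inhibitor or DMSO, then labeled with a desthiobiotin-ATP acyl-phosphate probe that biotinylates conserved kinase lysines. Tryptic peptides were streptavidin-enriched and quantified by LC-MS/MS, reported as % change in MS signal from duplicate treated and duplicate control samples.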

CaMKK1 = molecular target: T2, CaMKK1 (Homo sapiens, UniProt Q8N5S9); conditions: Lys2
T2 construct: endogenous in cells; host or cells: PANC-1 cell lysate
Outline: as §1

LATS1 = molecular target: T3, LATS1 (Homo sapiens, UniProt O95835)
T3 construct: we opted to conduct a kinome screen (KiNativ) in PANC-1 cell lysates; endogenous in cells; host or cells: PANC-1 cell lysate
T3 sequence (O95835 whole entry): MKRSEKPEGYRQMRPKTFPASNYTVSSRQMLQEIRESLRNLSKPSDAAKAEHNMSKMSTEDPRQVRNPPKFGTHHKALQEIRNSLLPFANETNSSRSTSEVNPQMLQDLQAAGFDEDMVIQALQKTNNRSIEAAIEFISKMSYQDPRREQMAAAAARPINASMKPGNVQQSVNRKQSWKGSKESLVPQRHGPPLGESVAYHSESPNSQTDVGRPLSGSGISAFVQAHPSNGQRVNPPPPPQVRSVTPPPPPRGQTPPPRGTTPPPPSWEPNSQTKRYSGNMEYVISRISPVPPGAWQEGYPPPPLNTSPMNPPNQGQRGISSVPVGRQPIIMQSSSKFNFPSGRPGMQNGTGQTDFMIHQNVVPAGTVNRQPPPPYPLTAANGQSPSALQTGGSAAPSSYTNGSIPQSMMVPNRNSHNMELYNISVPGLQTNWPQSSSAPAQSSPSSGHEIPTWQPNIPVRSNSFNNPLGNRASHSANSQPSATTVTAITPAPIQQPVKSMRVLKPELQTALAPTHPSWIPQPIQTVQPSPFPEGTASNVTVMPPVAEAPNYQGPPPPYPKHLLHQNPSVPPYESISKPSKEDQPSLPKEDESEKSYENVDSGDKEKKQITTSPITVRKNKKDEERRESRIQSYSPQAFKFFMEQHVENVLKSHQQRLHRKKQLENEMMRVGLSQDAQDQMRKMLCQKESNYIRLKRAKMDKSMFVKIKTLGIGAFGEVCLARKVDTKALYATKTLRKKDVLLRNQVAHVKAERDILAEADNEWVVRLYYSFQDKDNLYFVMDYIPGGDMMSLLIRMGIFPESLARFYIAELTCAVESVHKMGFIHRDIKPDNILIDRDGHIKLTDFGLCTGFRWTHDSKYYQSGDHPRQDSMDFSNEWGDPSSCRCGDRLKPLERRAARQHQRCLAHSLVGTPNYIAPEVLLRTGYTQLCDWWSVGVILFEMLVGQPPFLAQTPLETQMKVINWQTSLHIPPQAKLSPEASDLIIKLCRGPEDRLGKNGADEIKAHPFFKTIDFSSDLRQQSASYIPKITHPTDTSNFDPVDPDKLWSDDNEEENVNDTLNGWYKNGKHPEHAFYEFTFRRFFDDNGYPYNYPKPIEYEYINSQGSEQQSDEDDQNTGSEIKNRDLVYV
Outline: as §1

MRCKb = molecular target: T4, MRCKb (Homo sapiens, UniProt Q9Y5S2); conditions: Lys2
T4 construct: endogenous in cells; host or cells: PANC-1
Outline: as §1

DGKH = molecular target: T5, DGKH (Homo sapiens, UniProt Q86XP1); conditions: ATP
T5 construct: endogenous in cells; host or cells: PANC-1 lysate
Outline: as §1

MLK3 = molecular target: T6, MLK3 (Homo sapiens, UniProt Q16584); conditions: Lys2
T6 construct: endogenous in cells; host or cells: PANC-1
Outline: as §1

RIPK2 = molecular target: T7, RIPK2 (Homo sapiens, UniProt O43353); conditions: Lys2
T7 construct: endogenous in cells; host or cells: PANC-1 cell lysate
Outline: as §1

GAK = molecular target: T8, GAK (Homo sapiens, UniProt O14976); conditions: Lys2
T8 construct: endogenous in cells; host or cells: PANC-1 lysate
Outline: as §1

DLK = molecular target: T9, DLK (Homo sapiens, UniProt Q12852); conditions: Lys2
T9 construct: endogenous in cells; host or cells: PANC-1 lysate
Outline: as §1

LATS2 = molecular target: T10, LATS2 (Homo sapiens, UniProt Q9NRM7)
T10 construct: we opted to conduct a kinome screen (KiNativ) in PANC-1 cell lysates; endogenous in cells; host or cells: PANC-1 cell lysate
T10 sequence (Q9NRM7 whole entry): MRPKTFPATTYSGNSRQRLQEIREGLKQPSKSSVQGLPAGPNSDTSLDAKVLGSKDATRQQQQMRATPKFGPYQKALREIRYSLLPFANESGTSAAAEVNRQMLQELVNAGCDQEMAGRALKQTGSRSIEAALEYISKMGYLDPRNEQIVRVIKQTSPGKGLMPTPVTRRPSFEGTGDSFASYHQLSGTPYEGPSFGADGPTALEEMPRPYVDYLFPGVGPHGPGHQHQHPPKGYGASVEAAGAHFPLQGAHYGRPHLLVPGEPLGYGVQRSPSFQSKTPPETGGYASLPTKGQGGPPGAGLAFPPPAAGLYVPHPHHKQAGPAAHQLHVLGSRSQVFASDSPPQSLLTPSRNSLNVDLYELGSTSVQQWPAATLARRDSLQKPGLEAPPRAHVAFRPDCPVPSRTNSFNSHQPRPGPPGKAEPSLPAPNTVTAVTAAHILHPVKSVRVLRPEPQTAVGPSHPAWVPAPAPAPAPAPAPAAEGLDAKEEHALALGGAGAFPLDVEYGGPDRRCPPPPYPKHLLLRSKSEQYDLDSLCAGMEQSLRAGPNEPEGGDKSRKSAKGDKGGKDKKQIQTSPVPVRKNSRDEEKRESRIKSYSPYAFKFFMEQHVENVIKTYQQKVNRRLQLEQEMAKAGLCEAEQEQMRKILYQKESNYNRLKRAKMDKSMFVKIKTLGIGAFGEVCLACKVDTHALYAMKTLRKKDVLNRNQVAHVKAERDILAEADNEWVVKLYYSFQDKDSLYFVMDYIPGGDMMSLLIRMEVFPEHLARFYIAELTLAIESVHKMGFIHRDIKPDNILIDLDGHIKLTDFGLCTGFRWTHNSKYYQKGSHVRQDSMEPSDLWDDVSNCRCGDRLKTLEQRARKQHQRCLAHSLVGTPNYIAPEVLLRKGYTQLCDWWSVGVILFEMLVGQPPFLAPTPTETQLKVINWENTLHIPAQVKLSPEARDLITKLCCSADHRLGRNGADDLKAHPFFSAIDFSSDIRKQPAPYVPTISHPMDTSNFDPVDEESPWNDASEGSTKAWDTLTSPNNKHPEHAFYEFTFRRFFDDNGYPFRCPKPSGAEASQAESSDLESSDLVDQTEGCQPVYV
Outline: as §1

Wnk1, Wnk2, Wnk3 = conditions: 5 µM; Lys2; DLKCDNIFITGPTGSVK
Outline: as §1

CDK2 = molecular target: T11, CDK2 (Homo sapiens, UniProt P24941)
T11 construct: endogenous in cells; host or cells: PANC-1 cell lysate
Outline: as §1

PIP5K1A = molecular target: T12, PIP5K1A (Homo sapiens, UniProt Q99755); conditions: ATP
T12 construct: endogenous in cells; host or cells: PANC-1 cell lysate
Outline: as §1

TAO1, TAO3 = conditions: 5 µM; Lys2; DIKAGNILLTEPGQVK
Outline: as §1

CDK10 = molecular target: T13, CDK10 (Homo sapiens, UniProt Q15131); conditions: Lys2
T13 construct: endogenous in cells; host or cells: PANC-1 cell lysate
Outline: as §1

GCN2 domain2 = molecular target: T14, GCN2 domain2 (Homo sapiens, UniProt Q9P2K8)
T14 construct: we opted to conduct a kinome screen (KiNativ) in PANC-1 cell lysates; endogenous in cells; host or cells: PANC-1 cell lysate
T14 sequence (Q9P2K8 whole entry, the tested form may be a part): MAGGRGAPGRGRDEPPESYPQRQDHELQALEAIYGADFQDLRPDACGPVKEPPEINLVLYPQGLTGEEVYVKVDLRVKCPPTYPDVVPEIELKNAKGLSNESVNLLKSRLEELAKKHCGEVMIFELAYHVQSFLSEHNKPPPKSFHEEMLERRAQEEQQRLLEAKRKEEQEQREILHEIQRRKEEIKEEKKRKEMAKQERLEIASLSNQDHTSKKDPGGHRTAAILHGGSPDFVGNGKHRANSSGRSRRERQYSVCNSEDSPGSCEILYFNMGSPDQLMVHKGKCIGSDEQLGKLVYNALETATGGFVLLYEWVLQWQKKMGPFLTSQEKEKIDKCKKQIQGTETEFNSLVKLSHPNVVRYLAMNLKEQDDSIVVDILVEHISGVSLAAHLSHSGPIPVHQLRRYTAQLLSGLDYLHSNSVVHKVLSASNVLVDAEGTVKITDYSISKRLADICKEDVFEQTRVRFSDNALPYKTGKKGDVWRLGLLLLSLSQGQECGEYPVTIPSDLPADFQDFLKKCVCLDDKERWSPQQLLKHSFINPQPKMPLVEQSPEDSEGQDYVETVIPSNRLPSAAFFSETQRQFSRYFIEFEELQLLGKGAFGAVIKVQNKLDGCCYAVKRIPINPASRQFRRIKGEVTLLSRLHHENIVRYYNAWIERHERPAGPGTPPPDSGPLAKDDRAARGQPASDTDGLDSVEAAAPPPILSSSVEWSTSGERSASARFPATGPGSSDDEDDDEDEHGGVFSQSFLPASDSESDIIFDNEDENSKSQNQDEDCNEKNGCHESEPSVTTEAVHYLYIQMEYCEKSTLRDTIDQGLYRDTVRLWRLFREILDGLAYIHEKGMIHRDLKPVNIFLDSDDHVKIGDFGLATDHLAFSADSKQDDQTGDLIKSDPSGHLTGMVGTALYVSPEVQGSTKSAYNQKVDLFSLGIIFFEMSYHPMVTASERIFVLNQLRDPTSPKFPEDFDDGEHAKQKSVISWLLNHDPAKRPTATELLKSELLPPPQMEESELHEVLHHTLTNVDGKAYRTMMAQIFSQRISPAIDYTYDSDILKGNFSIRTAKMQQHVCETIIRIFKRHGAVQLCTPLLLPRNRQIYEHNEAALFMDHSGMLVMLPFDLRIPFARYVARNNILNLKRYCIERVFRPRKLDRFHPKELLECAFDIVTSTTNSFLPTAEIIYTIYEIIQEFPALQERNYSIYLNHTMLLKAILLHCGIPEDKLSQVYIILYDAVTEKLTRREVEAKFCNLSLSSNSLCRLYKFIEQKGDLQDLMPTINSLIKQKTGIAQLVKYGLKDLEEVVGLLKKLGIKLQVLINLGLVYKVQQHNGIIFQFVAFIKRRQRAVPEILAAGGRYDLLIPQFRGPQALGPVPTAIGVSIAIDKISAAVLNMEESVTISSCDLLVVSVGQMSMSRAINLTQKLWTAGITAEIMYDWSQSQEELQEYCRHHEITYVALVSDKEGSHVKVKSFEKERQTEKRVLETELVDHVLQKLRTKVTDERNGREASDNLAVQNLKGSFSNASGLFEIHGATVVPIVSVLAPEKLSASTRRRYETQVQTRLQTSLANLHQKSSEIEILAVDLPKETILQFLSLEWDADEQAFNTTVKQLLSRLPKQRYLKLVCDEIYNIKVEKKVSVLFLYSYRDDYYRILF
Outline: as §1

Erk2 = molecular target: T15, Erk2 (Homo sapiens, UniProt P28482); conditions: Lys2
T15 construct: endogenous in cells; host or cells: PANC-1 lysate
Outline: as §1

AGK = molecular target: T16, AGK (Homo sapiens, UniProt Q53H12); conditions: ATP
T16 construct: endogenous in cells; host or cells: PANC-1 cell lysate
Outline: as §1

AXL = molecular target: T17, AXL (Homo sapiens, UniProt P30530); conditions: Activation Loop
T17 construct: endogenous in cells; host or cells: PANC-1 cell lysate
Outline: as §1

ATR = molecular target: T18, ATR (Homo sapiens, UniProt Q13535); conditions: ATP
T18 construct: endogenous in cells; host or cells: PANC-1 cell lysate
Outline: as §1

NuaK2 = molecular target: T19, NuaK2 (Homo sapiens, UniProt Q9H093); conditions: Lys1
T19 construct: endogenous in cells; host or cells: PANC-1 cell lysate
Outline: as §1

YES = molecular target: T20, YES (Homo sapiens, UniProt P07947); conditions: Lys1
T20 construct: endogenous in cells; host or cells: PANC-1 cell lysate
T20 sequence (P07947 whole entry): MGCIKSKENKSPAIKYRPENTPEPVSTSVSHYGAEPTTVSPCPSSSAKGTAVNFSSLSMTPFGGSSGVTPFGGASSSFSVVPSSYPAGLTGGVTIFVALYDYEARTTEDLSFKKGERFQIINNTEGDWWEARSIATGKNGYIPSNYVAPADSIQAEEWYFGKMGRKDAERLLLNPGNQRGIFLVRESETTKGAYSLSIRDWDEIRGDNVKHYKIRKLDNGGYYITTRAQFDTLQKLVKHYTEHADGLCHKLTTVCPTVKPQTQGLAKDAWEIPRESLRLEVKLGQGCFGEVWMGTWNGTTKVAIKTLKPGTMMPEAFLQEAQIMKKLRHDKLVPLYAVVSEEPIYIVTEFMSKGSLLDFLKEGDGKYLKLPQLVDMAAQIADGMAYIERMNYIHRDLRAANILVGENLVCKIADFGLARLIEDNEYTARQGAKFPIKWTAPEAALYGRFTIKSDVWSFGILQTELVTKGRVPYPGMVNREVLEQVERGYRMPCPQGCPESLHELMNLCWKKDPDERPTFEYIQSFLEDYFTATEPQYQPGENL
Outline: as §1

NEK2 = molecular target: T21, NEK2 (Homo sapiens, UniProt P51955); conditions: Lys2
T21 construct: endogenous in cells; host or cells: PANC-1 cell lysate
T21 sequence (P51955 whole entry): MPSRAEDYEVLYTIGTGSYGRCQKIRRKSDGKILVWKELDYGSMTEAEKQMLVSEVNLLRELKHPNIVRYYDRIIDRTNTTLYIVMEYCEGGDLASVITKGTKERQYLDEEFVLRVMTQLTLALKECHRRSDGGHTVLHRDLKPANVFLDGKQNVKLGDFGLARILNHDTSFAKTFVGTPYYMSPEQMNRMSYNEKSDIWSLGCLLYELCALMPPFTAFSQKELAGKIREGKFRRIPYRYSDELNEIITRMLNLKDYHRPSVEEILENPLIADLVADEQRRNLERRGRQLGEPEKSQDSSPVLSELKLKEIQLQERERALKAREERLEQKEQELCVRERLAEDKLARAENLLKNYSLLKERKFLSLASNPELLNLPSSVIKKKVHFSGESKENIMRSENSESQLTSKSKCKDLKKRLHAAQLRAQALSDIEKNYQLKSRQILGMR
Outline: as §1

MPSK1 = molecular target: T22, MPSK1 (Homo sapiens, UniProt O75716); conditions: Lys2
T22 construct: endogenous in cells; host or cells: PANC-1
Outline: as §1

SRPK1, SRPK2 = conditions: 5 µM; Lys1; FVAMKVVK
Outline: as §1

ULK1 = molecular target: T23, ULK1 (Homo sapiens, UniProt O75385); conditions: Lys2
T23 construct: endogenous in cells; host or cells: PANC-1 cell lysate
Outline: as §1

MAST1, MAST2 = conditions: 5 µM; Lys2; DLKPDNLLITSMGHIK
Outline: as §1

Structure (SMILES): Cn1cc(-c2cnc3ccc(NC(=O)Nc4ccc(F)c(C(F)(F)F)c4)cc3n2)cn1 [51-106, 1-(4-Fluoro-3-(trifluoromethyl)phenyl)-3-(3-(1-methyl-1H-pyrazol-4-yl)quinoxalin-6-yl)urea]
- inhibition at 5 µM (SIK): 23.3%
- inhibition at 5 µM (CaMKK1): ≤ 0%
- % Inhibition (LATS1; 5 µM, Lys2, DIKPDNILIDR): NB (NB = No Binding (≤ 0))
- inhibition at 5 µM (LATS1; Lys1, […]): ≤ 0%
- inhibition at 5 µM (MRCKb): ≤ 0%
- inhibition at 5 µM (DGKH): ≤ 0%
- inhibition at 5 µM (MLK3): 1.3%
- inhibition at 5 µM (RIPK2): ≤ 0%
- inhibition at 5 µM (GAK): 1%
- inhibition at 5 µM (DLK): 5.9%
- inhibition at 5 µM (LATS2; Lys1, VDTHALYAMKTLR): ≤ 0%
- inhibition at 5 µM (LATS2; Lys2, DIKPDNILIDLDGHIK): 1.4%
- % Inhibition (Wnk1, Wnk2, Wnk3): 10.6%
- % Inhibition (CDK2; 5 µM, Lys1, LTGEVVALKK): 12%
- inhibition at 5 µM (CDK2; Lys1, LTGEVVALKK): 12.3%
- inhibition at 5 µM (CDK2; Lys2, DLKPQNLLINTEGAIK): ≤ 0%
- inhibition at 5 µM (PIP5K1A): 8.7%
- % Inhibition (TAO1, TAO3): 4.9%
- inhibition at 5 µM (CDK10): 10.3%
- inhibition at 5 µM (GCN2 domain2; Lys1, LDGCCYAVKR): 5.3%
- inhibition at 5 µM (GCN2 domain2; Lys2, DLKPVNIFLDSDDHVK): ≤ 0%
- inhibition at 5 µM (Erk2): ≤ 0%
- inhibition at 5 µM (AGK): ≤ 0%
- inhibition at 5 µM (AXL): ≤ 0%
- inhibition at 5 µM (ATR): 2.2%
- inhibition at 5 µM (NuaK2): 2.2%
- inhibition at 5 µM (YES): 16%
- inhibition at 5 µM (NEK2): ≤ 0%
- inhibition at 5 µM (MPSK1): ≤ 0%
- % Inhibition (SRPK1, SRPK2): NB (NB = No Binding (≤ 0))
- inhibition at 5 µM (ULK1): ≤ 0%
- % Inhibition (MAST1, MAST2): NB (NB = No Binding (≤ 0))
